Measured values: patent US20230382858A1 (Beckley Psytech Limited, priority 2020, published 2023)

Legend:
[1] = Dynamic Vapour Sorption (DVS); format: physicochemical
Procedure: Sorption isotherms were obtained using a Hiden Isochema moisture sorption analyser (IGAsorp Systems Firmware V20.19.005 COM3) and operated by Isochema Hlsorp 2019 V4.02.0102. The sample was maintained at a constant temperature (25° C.) by the instrument controls. The humidity was controlled by mixing streams of dry and wet nitrogen, with a total flow of 250 ml.min-1. The weight change of the sample was monitored as a function of humidity by a microbalance (accuracy +/− 0.001 mg).
A defined amount of sample was placed in a tared mesh stainless steel basket under ambient conditions. A typical experimental run consisted of three cycles (desorption, sorption, desorption, sorption, desorption and sorption) at a constant temperature (25° C.) and 10% RH intervals over a 0-90% RH range (60 minutes for each humidity level).
This is to obtain in-depth profiling of the material towards humidity at these elevated levels.

[2] = system: Chinese hamster ovary (CHO)-K1 cells; assay: In vitro micronucleus test (flow cytometry); format: cell-based
Text: The treatment with the vehicle/negative and positive controls was concurrently performed.

hERG = hERG (Homo sapiens, UniProt Q12809); assay: in vitro
Chain of hERG (Q12809 whole entry): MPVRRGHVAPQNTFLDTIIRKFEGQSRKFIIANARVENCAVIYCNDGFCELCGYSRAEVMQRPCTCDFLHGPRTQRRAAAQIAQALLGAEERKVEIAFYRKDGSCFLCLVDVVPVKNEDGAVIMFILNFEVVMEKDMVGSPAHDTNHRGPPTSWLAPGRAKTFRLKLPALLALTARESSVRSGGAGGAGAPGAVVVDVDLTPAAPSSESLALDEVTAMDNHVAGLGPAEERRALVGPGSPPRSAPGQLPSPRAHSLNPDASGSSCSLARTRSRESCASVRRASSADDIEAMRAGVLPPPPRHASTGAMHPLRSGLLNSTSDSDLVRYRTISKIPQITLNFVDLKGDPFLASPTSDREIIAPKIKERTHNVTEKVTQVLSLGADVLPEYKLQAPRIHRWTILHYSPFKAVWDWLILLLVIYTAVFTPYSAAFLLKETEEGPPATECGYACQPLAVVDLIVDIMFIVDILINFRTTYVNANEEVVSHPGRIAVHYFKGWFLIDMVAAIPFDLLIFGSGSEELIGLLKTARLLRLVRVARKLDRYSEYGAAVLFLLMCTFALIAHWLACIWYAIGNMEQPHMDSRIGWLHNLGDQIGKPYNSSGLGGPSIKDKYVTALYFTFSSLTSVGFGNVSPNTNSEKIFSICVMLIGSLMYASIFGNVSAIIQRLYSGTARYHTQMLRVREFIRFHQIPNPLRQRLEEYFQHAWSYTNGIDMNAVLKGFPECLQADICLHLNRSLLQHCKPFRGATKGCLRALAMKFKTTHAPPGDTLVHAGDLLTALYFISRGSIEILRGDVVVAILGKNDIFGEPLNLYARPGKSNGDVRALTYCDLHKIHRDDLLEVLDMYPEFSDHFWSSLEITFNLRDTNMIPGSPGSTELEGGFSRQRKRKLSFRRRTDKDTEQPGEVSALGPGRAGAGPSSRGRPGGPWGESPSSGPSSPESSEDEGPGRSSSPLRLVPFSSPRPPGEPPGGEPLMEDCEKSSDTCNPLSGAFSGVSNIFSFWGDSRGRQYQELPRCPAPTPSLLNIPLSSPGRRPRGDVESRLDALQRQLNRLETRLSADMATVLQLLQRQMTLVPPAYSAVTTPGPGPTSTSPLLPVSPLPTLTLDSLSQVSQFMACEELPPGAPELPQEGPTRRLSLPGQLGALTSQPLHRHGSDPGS
Text: This assay is employed as a screen to assess potential risks for QT interval prolongation.

Sprague-Dawley rats = assay: Maximum tolerated dose followed by 7-day repeat-dose toxicology in rats (Study 700040); format: in vivo; conditions: rat
Procedure: The study consisted of 2 parts. […] The doses used in part 1 were 15, 30, 50, 65, and 75 mg/kg. Each subsequent dose was administered following at least 24 hours from the commencement of the previous dose. There were 2 males and 2 females in each dose group.
During Phase I, assessments of mortality, clinical signs and body weights were performed. […] The necropsy consisted of an external examination, including reference to all clinically-recorded lesions, as well as a detailed internal examination.
During Phase 2, assessments of mortality, clinical signs and body weights were performed. Following dosing, all animals were euthanized and subjected to a necropsy examination on Day 8. The necropsy consisted of an external examination, including reference to all clinically-recorded lesions, as well as a detailed internal examination. Study plan specific tissues/organs were collected and retained, then trimmed and preserved promptly once the animal was euthanized but these were not further examined microscopically.

[3] = system: Salmonella typhimurium tester strains TA98, TA100, TA1535, and TA1537; assay: Bacterial Reverse Mutation Test (Ames test), S. typhimurium; conditions: for cytotoxicity: 5000 μg/plate
[4] = intranasal 75 mg/kg for 7 consecutive days

With `COc1ccc2[nH]cc(CCN(C)C)c2c1.Cl` [5MeODMT Hydrochloride, lot 20/20/126-FP, 5MeODMT Hydrochloride] the “state of material upon completion of the DVS cycle” value ([1]; 0-90% RH cycles) was “completed deliquesced”, the moisture uptake ([1]; 25° C., 0-70% RH) was “less than 0.3 % w/w” and the moisture uptake ([1]; 25° C., first sorption cycle, 70-80% RH) was “Approximately 23 w/w”. The “mass above the minimum recorded at 0% RH after subsequent cycles (retention of moisture)” value ([1]; 25° C., subsequent sorption and desorption cycles) was 6-9 % w/w and the further moisture uptake ([1]; 25° C., up to and when held at 90% RH) was 20 % w/w.

With `COc1ccc2[nH]cc(CCN(C)C)c2c1.Cl` [5MeODMT Hydrochloride, lot 20/45/006-FP, 5MeODMT Hydrochloride] the moisture increase ([1]; 70-75% RH) was “ca. 0.46 % w/w”, the further moisture uptake ([1]; 75-80% RH) was “ca. 7%” and the further moisture uptake ([1]; 80-85%) was “ca. 40%”. For the same molecule, the stability towards humidity ([1]; DVS) was “robustness between 0-75% RH” and the “state of solids post DVS analysis” value ([1]; modified DVS up to 85% RH, likely occurred above 80% RH) was “Complete deliquescence”.

For `COc1ccc2[nH]cc(CCN(C)C)c2c1` [5MeODMT, 5-methoxy-N,N-dimethyltryptamine], the “chromosome-damaging potential (conclusion)” value ([2]; CHO-K1 cells) was “no chromosome-damaging potential”, the cytotoxicity or precipitation ([2]; up to 300 μg/mL, all treatment periods) was “No cytotoxicity or precipitation” and the inhibition at 30 µM (hERG) was 77.8 ± 7.4%. The body weight gain (Sprague-Dawley rats; [4]) was “slightly suppressed for both sexes”, the “macroscopic observation: dark/pale area of the lungs” value (Sprague-Dawley rats; [4]) was 2/10 and the mortality (Sprague-Dawley rats; [4]) was “no mortalities”. For the same molecule, the tolerability (Sprague-Dawley rats; [4]) was “tolerated”, the clinical signs (Sprague-Dawley rats; single intranasal 15-75 mg/kg) was “incoordination, shallow or increased respiration, sneezing, salivation, decreased activity, piloerection, white pasty material around penis (for males), ptosis, laying on the cage floor, and sensitive to touch and shaking” and the “mortality and gross pathology” value (Sprague-Dawley rats; single intranasal 15-75 mg/kg) was “no mortality and gross pathology findings at any dose”. For the same molecule, the “time to resolution of most clinical signs post dose” value (Sprague-Dawley rats; single intranasal 15-75 mg/kg) was ≤ 1 h, the tolerability (Sprague-Dawley rats; single intranasal, dose levels up to 75 mg/kg) was “tolerated” and the body weight gain (Sprague-Dawley rats; single intranasal, females at 75 mg/kg) was “slightly suppressed”. The cytotoxicity ([3]; absence of S9 mix) was “higher levels of cytotoxicity”, the cytotoxicity ([3]; presence of S9 mix) was “remained slight” and the “revertant colonies in repeated test” value ([3]; TA1537 and TA98, absence of S9 mix, 15-2000 μg per plate) was “no increases in the revertant colonies number per plate”. For the same molecule, the “mutagenic potential (conclusion)” value ([3]; all bacteria strains tested, absence or presence of S9) was “no mutagenic potential”.
